In patent publication US9370507B2, “Pyridonyl guanidine F1F0-ATPase inhibitors and therapeutic uses thereof” (Lycera Corporation, priority 2010, dated 2016):

Tests used:
Ramos cells = assay: Cytotoxicity in Ramos cells; type: cell-based; conditions: Homo sapiens, read-out: Ramos Cell EC50
Method: (§1) The compounds listed in Table 4 were tested for activity against F1F0-ATPase by measuring the ability of the compounds to inhibit ATP synthesis. In addition, the compounds were assessed for cytotoxicity in Ramos cells Inhibition of F1F0-ATPase activity in synthesizing ATP and cytotoxicity in Ramos cells were measured according to the procedures described in K. M. Johnson et al. Chemistry & Biology 2005, 12, 485-496.

F1F0-ATPase = molecular target: T1, F1F0-ATPase (Bos taurus, UniProt P13621); assay: Inhibition of F1F0-ATPase activity in synthesizing ATP; type: biochemical; conditions: inhibition of ATP synthesis; read-out: ATP Syn IC50
T1 construct: from tissue
Method: as §1

Row | Structure (SMILES) | EC50 (Ramos cells) | IC50 (F1F0-ATPase)
1 | CCS(=O)(=O)Nc1cccc(N/C(=N\C(=O)c2ccc(F)c(F)c2)NCc2ccccc2C(F)(F)F)n1 [Compound A-150] | > 10 µM | < 10 µM
2 | O=C(N=C(Nc1cc(F)cc(Cl)c1)Nc1cccc(NS(=O)(=O)c2cccnc2)n1)c1ccc(Cl)cc1 [Compound A-147] | < 10 µM | < 10 µM
3 | O=C(/N=C(/Nc1cc(F)cc(Cl)c1)Nc1cccc(O)n1)c1ccc(F)c(F)c1 [Compound A-4] | < 10 µM | < 10 µM
4 | O=C(N/C(=N\c1cccc(O)n1)Nc1ccc(F)c(Cl)c1)c1ccc(F)c(F)c1 [Compound A-9] | > 10 µM | > 10 µM
5 | O=C(/N=C(/NCC(F)(F)F)Nc1cccc(NS(=O)(=O)CC(F)(F)F)n1)c1ccc(Cl)cc1 [Compound A-125] | < 10 µM | < 10 µM
6 | O=C(/N=C(\Nc1cccc(C(F)(F)F)c1)Nc1cccc(O)n1)c1ccc(C(F)(F)F)cc1 [Compound A-1] | < 10 µM | < 10 µM
7 | CC(C)(C)N/C(=N\C(=O)c1ccc(F)c(F)c1)Nc1cccc(O)n1 [Compound A-45] | < 10 µM | < 10 µM
8 | CC(C)N/C(=N/C(=O)c1ccc(Cl)cc1)Nc1cccc(O)n1 [Compound A-109] | > 10 µM | < 10 µM
9 | CCC(C)(C)N/C(=N/C(=O)c1ccc(Cl)cc1)Nc1cccc(O)n1 [Compound A-102] | < 10 µM | < 10 µM
10 | O=C(/N=C(\Nc1cccc(O)n1)NC1CCOCC1)c1ccc(C(F)(F)F)cc1 [Compound A-92] | < 10 µM | < 10 µM
11 | O=C(/N=C(/NCc1ccc(F)cc1)Nc1cccc(O)n1)c1ccc(C(F)(F)F)cc1 [Compound A-85] | < 10 µM | < 10 µM
12 | CC(NC(=NC(=O)c1ccc(C(F)(F)F)cc1)Nc1cccc(O)n1)c1ccc(Cl)cc1 (stereo not shown) [Compound A-69] | < 10 µM | < 10 µM
13 | CCOC(=O)Nc1cccc(N/C(=N\C(=O)c2ccc(F)c(F)c2)Nc2cccc(C(F)(F)F)c2)n1 [Compound A-111] | > 10 µM | > 10 µM
14 | O=C(/N=C(/NCc1ccc(F)c(F)c1)Nc1cccc(O)n1)c1ccc(C(F)(F)F)cc1 [Compound A-36] | < 10 µM | < 10 µM
15 | O=C(/N=C(\Nc1cccc(O)n1)NC1CCCOC1)c1ccc(Cl)cc1 (stereo not shown) [Compound A-105] | > 10 µM | > 10 µM
16 | CC(=O)N(Cc1ccc(F)c(Cl)c1)/C(=N/C(=O)c1ccc(C(F)(F)F)cc1)Nc1cccc(O)n1 [Compound A-65] | < 10 µM | < 10 µM
17 | Cc1cc(CN/C(=N/C(=O)c2ccc(Cl)c(F)c2)Nc2cccc(O)n2)no1 [Compound A-55] | > 10 µM | < 10 µM
18 | O=C(/N=C(\NCC(F)(F)F)Nc1cccc(O)n1)c1ccc(Cl)cc1 [Compound A-56] | < 10 µM | < 10 µM
19 | O=C(N=C(Nc1cccc(O)n1)NC1CCC(C(F)(F)F)CC1)c1ccc(C(F)(F)F)cc1 (stereo not shown) [Compound A-63] | < 10 µM | < 10 µM
20 | O=C(/N=C(/NCc1ccccc1C(F)(F)F)Nc1cccc(NS(=O)(=O)C2CC2)n1)c1ccc(C(F)(F)F)cc1 [Compound A-117] | < 10 µM | < 10 µM
21 | O=C(N=C(Nc1cccc(O)n1)NC1CCC(C(F)(F)F)CC1)c1ccc(Cl)cc1 (stereo not shown) [Compound A-64] | < 10 µM | < 10 µM

Row | Structure (SMILES) | EC50 (Ramos cells) | IC50 (F1F0-ATPase)
22 | CC(C)(C)CN/C(=N/C(=O)c1ccc(Cl)cc1)Nc1cccc(NS(=O)(=O)c2cccnc2)n1 [Compound A-144] | > 10 µM | < 10 µM
23 | N#CCS(=O)(=O)Nc1cccc(N/C(=N\C(=O)c2ccc(F)c(F)c2)NCc2ccccc2C(F)(F)F)n1 [Compound A-151] | < 10 µM | < 10 µM
24 | CC(C)(C)N/C(=N/C(=O)c1ccc(C(F)(F)F)cc1)Nc1cccc(O)n1 [Compound A-41] | < 10 µM | < 10 µM
25 | CC(=O)Nc1cccc(N/C(=N\C(=O)c2ccc(Cl)cc2)NCC(C)(C)C)n1 [Compound A-143] | < 10 µM | < 10 µM
26 | CCS(=O)(=O)Nc1cccc(N/C(=N\C(=O)c2ccc(Cl)cc2)Nc2cc(F)cc(Cl)c2)n1 [Compound A-130] | < 10 µM | < 10 µM
27 | O=C(/N=C(\Nc1cccc(O)n1)Nc1ccc(F)cc1C1CC1)c1ccc(C(F)(F)F)cc1 [Compound A-12] | < 10 µM | < 10 µM
28 | O=C(/N=C(/Nc1cccc(C(F)(F)F)c1)Nc1cccc(O)n1)c1cccc(Cl)c1 [Compound A-16] | < 10 µM | < 10 µM
29 | O=C(/N=C(\Nc1cccc(O)n1)NC1CCCOC1)c1ccc(C(F)(F)F)cc1 (stereo not shown) [Compound A-93] | < 10 µM | < 10 µM
30 | CC(C)(C)N/C(=N/C(=O)c1ccc(C(F)(F)F)cc1)Nc1cccc(NS(=O)(=O)CC(F)(F)F)n1 [Compound A-129] | < 10 µM | < 10 µM
31 | CC(NC(=NC(=O)c1ccc(C(F)(F)F)cc1)Nc1cccc(O)n1)c1ccccc1Cl (stereo not shown) [Compound A-67] | < 10 µM | < 10 µM
32 | CCC(C)(C)N/C(=N/C(=O)c1ccc(F)c(F)c1)Nc1cccc(O)n1 [Compound A-96] | < 10 µM | < 10 µM
33 | O=C(/N=C(/NCc1cc(F)c(F)c(F)c1)Nc1cccc(O)n1)c1ccc(F)c(F)c1 [Compound A-75] | > 10 µM | > 10 µM
34 | O=C(/N=C(\Nc1cccc(O)n1)Nc1ccccc1C1CC1)c1ccc(C(F)(F)F)cc1 [Compound A-6] | < 10 µM | < 10 µM
35 | O=C(N/C(=N\c1cccc(O)n1)Nc1cc(F)cc(Cl)c1)c1ccc(Cl)cc1 [Compound A-8] | < 10 µM | < 10 µM
36 | Cc1cc(CN/C(=N/C(=O)c2ccc(C(F)(F)F)cc2)Nc2cccc(O)n2)no1 [Compound A-53] | < 10 µM | < 10 µM
37 | O=C(/N=C(/NCc1ccc(Cl)c(F)c1)Nc1cccc(O)n1)c1ccc(Cl)cc1 [Compound A-83] | < 10 µM | < 10 µM
38 | O=C(/N=C(/NCc1ccc(C(F)(F)F)cc1)Nc1cccc(O)n1)c1ccc(C(F)(F)F)cc1 [Compound A-34] | < 10 µM | < 10 µM
39 | Cc1cc(CN/C(=N/C(=O)c2ccc(F)c(F)c2)Nc2cccc(O)n2)no1 [Compound A-54] | > 10 µM | < 10 µM
40 | O=C(/N=C(\Nc1cccc(O)n1)NC1CCCOC1)c1ccc(F)c(F)c1 (stereo not shown) [Compound A-99] | > 10 µM | > 10 µM
41 | CC1CCCCC1NC(=NC(=O)c1ccc(C(F)(F)F)cc1)Nc1cccc(O)n1 (stereo not shown) [Compound A-43] | > 10 µM | < 10 µM
42 | O=C(/N=C(/NCc1ccccc1C(F)(F)F)Nc1cccc(O)n1)c1ccc(F)c(F)c1 [Compound A-73] | < 10 µM | < 10 µM

Row | Structure (SMILES) | EC50 (Ramos cells) | IC50 (F1F0-ATPase)
43 | O=C(/N=C(/NCc1cccc(Cl)c1)Nc1cccc(O)n1)c1ccc(Cl)cc1 [Compound A-88] | < 10 µM | < 10 µM
44 | O=C(/N=C(/NCc1ccc(F)c(Cl)c1)Nc1cccc(O)n1)c1ccc(F)c(F)c1 [Compound A-27] | < 10 µM | < 10 µM
45 | COCC(C)N/C(=N/C(=O)c1ccc(F)c(F)c1)Nc1cccc(O)n1 (stereo not shown) [Compound A-100] | > 10 µM | > 10 µM
46 | Nc1cccc(N/C(=N\C(=O)c2ccc(F)c(F)c2)Nc2cccc(C(F)(F)F)c2)n1 [Compound A-110] | > 10 µM | < 10 µM
47 | O=C(/N=C(/NCc1ccccc1C(F)(F)F)Nc1cccc(O)n1)c1ccc(Cl)cc1 [Compound A-77] | < 10 µM | < 10 µM
48 | O=C(/N=C(/NCc1cccc(C(F)(F)F)c1)Nc1cccc(O)n1)c1ccc(F)c(F)c1 [Compound A-74] | < 10 µM | < 10 µM
49 | CC1(N/C(=N/C(=O)c2ccc(Cl)cc2)Nc2cccc(O)n2)CCCC1 [Compound A-62] | < 10 µM | < 10 µM
50 | O=C(/N=C(/Nc1cccc(O)n1)NC1CC1)c1ccc(Cl)c(F)c1 [Compound A-50] | > 10 µM | < 10 µM
51 | O=C(/N=C(/Nc1cccc(C(F)(F)F)c1)Nc1cccc(O)n1)c1cccc(C(F)(F)F)c1 [Compound A-17] | < 10 µM | < 10 µM
52 | O=C(/N=C(/NCc1ccc(F)c(Cl)c1)Nc1cccc(O)n1)c1ccc(Cl)cc1 [Compound A-82] | < 10 µM | < 10 µM
53 | O=C(/N=C(\Nc1cccc(O)n1)NC1CCCCCC1)c1ccc(C(F)(F)F)cc1 [Compound A-39] | < 10 µM | < 10 µM
54 | COCC(C)N/C(=N/C(=O)c1ccc(C(F)(F)F)cc1)Nc1cccc(O)n1 (stereo not shown) [Compound A-94] | > 10 µM | < 10 µM
55 | Cc1noc(C)c1S(=O)(=O)Nc1cccc(N/C(=N\C(=O)c2ccc(Cl)cc2)NCc2ccc(Cl)cc2F)n1 [Compound A-146] | < 10 µM | < 10 µM
56 | CCC(C)(C)N/C(=N/C(=O)c1ccc(C(F)(F)F)cc1)Nc1cccc(O)n1 [Compound A-90] | < 10 µM | < 10 µM
57 | O=C(/N=C(/Nc1cccc(O)n1)NC1CC1)c1ccc(F)c(F)c1 [Compound A-49] | > 10 µM | > 10 µM
58 | O=C(/N=C(\Nc1cccc(O)n1)NC1CCCC1)c1ccc(Cl)cc1 [Compound A-101] | > 10 µM | < 10 µM
59 | O=C(/N=C(/NCc1ccc(F)c(F)c1)Nc1cccc(O)n1)c1ccc(Cl)cc1 [Compound A-80] | < 10 µM | < 10 µM
60 | O=C(/N=C(/Nc1cccc(O)n1)NC(C1CC1)C1CC1)c1ccc(C(F)(F)F)cc1 [Compound A-59] | < 10 µM | < 10 µM
61 | O=C(/N=C(/Nc1cccc(C2CC2)c1)Nc1cccc(O)n1)c1ccc(C(F)(F)F)cc1 [Compound A-26] | < 10 µM | < 10 µM
62 | O=C(/N=C(/NCC1CCCCC1)Nc1cccc(O)n1)c1ccc(C(F)(F)F)cc1 [Compound A-42] | < 10 µM | < 10 µM
